Measured values from the CheMixHub drug solubility set.

Assay: xn = mol fraction of the nth substance listed, in the solute-free solvent

CCCCOc1ccc(C(=O)CCN2CCCCC2)cc1.Cl + CCO + CCCCCC
solubility (g/100 g solution)
Conditions	278.15 K	283.15 K	288.15 K	293.15 K	298.15 K	303.15 K	308.15 K	313.15 K	318.15 K	323.15 K
x2 = 0.1	2.56	2.95	3.35	3.75	4.22	4.75	5.33	5.97	6.73	7.53
x2 = 0.2	5.09	5.71	6.4	7.2	8.01	8.91	9.95	11.1	12.4	13.8
x2 = 0.3	7.84	8.72	9.72	10.8	12	13.4	14.9	16.6	18.4	20.3
x2 = 0.4	10.6	11.8	13.1	14.6	16.2	17.9	19.8	21.8	24	26.4
x2 = 0.5	13.7	15.2	16.8	18.6	20.5	22.6	24.8	27.3	29.9	32.6
x2 = 0.6	16.8	18.8	20.6	22.7	25	27.3	29.9	32.6	35.5	38.5
x2 = 0.7	20.3	22.4	24.6	27	29.4	32	35	37.9	41	44.1
x2 = 0.8	23.9	26.3	28.7	31.4	34.1	36.8	39.8	43	46.3	49.5
x2 = 0.9	27.7	30.4	33	35.8	38.8	41.8	45	48.3	51.6	54.9

CCCCOc1ccc(C(=O)CCN2CCCCC2)cc1.Cl + CCO + CCOC(C)=O
solubility (g/100 g solution)
Conditions	278.15 K	283.15 K	288.15 K	293.15 K	298.15 K	303.15 K	308.15 K	313.15 K	318.15 K	323.15 K
x2 = 0.1	4.4	5.22	6.12	7.23	8.43	9.93	11.7	13.6	15.8	18.4
x2 = 0.2	6.73	7.77	8.92	10.3	11.8	13.6	15.6	17.8	20.4	23.2
x2 = 0.3	9.22	10.6	12	13.6	15.3	17.3	19.6	22	24.8	27.7
x2 = 0.4	11.9	13.4	15.1	17	18.9	21.2	23.7	26.4	29.3	32.4
x2 = 0.5	14.7	16.5	18.3	20.4	22.6	25.2	27.9	30.8	33.9	37
x2 = 0.6	17.6	19.7	21.7	24.1	26.5	29.3	32.2	35.2	38.4	41.7
x2 = 0.7	20.8	23.2	25.4	28	30.6	33.5	36.6	39.8	43.1	46.5
x2 = 0.8	24.2	26.8	29.2	32	34.7	37.8	41	44.2	47.6	51
x2 = 0.9	27.9	30.7	33.2	36.1	39	42.2	45.5	48.8	52.2	55.5

CC(=O)OC(c1ccccc1)C(Cl)(Cl)Cl (centres undefined) + CCO + O
solubility (g/100 g solution)
Conditions	288.15 K	293.15 K	298.15 K	303.15 K	308.15 K	313.15 K	318.15 K	323.15 K	328.15 K
x2 = 0.4	0.237	0.492	0.787	1.3	1.94	2.85	3.79	4.63	5.65
x2 = 0.5	0.569	0.744	1.1	1.98	2.72	3.4	4.43	6.17	8.15
x2 = 0.6	1.11	1.43	1.77	3.24	4.3	5.43	7.34	9.98	13.9
x2 = 0.7	1.91	2.46	3	4.64	6.14	7.47	9.86	13.2	18
x2 = 0.8	2.52	3.05	4.06	6.07	7.63	9.55	12.1	16.4	21.2
x2 = 0.9	3.42	4.13	5.46	7.3	9.27	11.8	15.2	20	26.4

CCCCOc1ccc(C(=O)CCN2CCCCC2)cc1.Cl + CCO + O
solubility (g/100 g solution)
Conditions	278.15 K	283.15 K	288.15 K	293.15 K	298.15 K	303.15 K	308.15 K	313.15 K	318.15 K	323.15 K
x2 = 0.1	34.6	37.9	41.1	44.6	48.1	51.6	55.2	58.8	62.2	65.7
x2 = 0.2	33.9	37.1	40.3	43.8	47.1	50.6	54.1	57.7	61.1	64.5
x2 = 0.3	33.4	36.5	39.6	43	46.3	49.8	53.2	56.7	60.1	63.5
x2 = 0.4	33.1	36.1	39.2	42.4	45.7	49	52.4	55.9	59.4	62.7
x2 = 0.5	32.7	35.7	38.8	42	45.1	48.5	51.8	55.3	58.7	62
x2 = 0.6	32.5	35.4	38.4	41.5	44.7	48	51.3	54.7	58.2	61.5
x2 = 0.7	32.2	35.1	38.1	41.2	44.4	47.6	50.9	54.3	57.8	61
x2 = 0.8	32	35	37.9	41	44.1	47.2	50.5	53.9	57.3	60.6
x2 = 0.9	31.9	34.8	37.8	40.7	43.8	47	50.3	53.6	57	60.2

Nc1cncc(Cl)n1 + CCO + O
solubility (g/100 g solution)
Conditions	278.15 K	283.15 K	288.15 K	293.15 K	298.15 K	303.15 K	308.15 K	313.15 K	318.15 K	323.15 K
x2 = 0.04165	0.0437	0.053	0.0624	0.075	0.0883	0.106	0.124	0.145	0.168	0.197
x2 = 0.08908	0.071	0.0856	0.101	0.12	0.141	0.17	0.198	0.23	0.267	0.313
x2 = 0.1436	0.11	0.132	0.155	0.185	0.217	0.259	0.302	0.35	0.405	0.476
x2 = 0.2068	0.161	0.193	0.226	0.27	0.316	0.376	0.438	0.508	0.588	0.691
x2 = 0.2812	0.21	0.253	0.299	0.358	0.419	0.501	0.589	0.681	0.792	0.934
x2 = 0.3698	0.277	0.332	0.392	0.469	0.548	0.654	0.765	0.889	1.03	1.23
x2 = 0.4772	0.337	0.404	0.479	0.573	0.677	0.806	0.943	1.1	1.28	1.51
x2 = 0.6101	0.374	0.451	0.544	0.654	0.776	0.918	1.08	1.26	1.48	1.77
x2 = 0.7788	0.399	0.482	0.579	0.7	0.826	0.99	1.16	1.38	1.62	1.94
